From patent US20110086899A1, “PHARMACEUTICAL COMPOSITIONS FOR ORAL ADMINISTRATION” (XENON PHARMACEUTICALS INC., priority 2009, published 2011)
“Also recorded” adds a separate entry of the source.

Columns and labels:
[1] = solubility in excipients and excipient combinations; assay type: physicochemical
Procedure: Determination of the solubility of a spiro-oxindole compound of the invention, as a racemate, a single enantiomer, or a non-racemic mixture of enantiomers, or a pharmaceutically acceptable salt thereof, in each of the above excipients was carried out by weighing a specified quantity of the excipient into a scintillation vial and then adding a weighed quantity of the spiro-oxindole compound of the invention, as a racemate, a single enantiomer, or a non-racemic mixture of enantiomers, or a pharmaceutically acceptable salt thereof. Heating and vortexing was then applied as required to dissolve the spiro-oxindole compound of the invention, as a racemate, a single enantiomer, or a non-racemic mixture of enantiomers, or a pharmaceutically acceptable salt thereof. If the initial quantity of the spiro-oxindole compound of the invention, as a racemate, a single enantiomer, or a non-racemic mixture of enantiomers, or a pharmaceutically acceptable salt thereof, dissolved, then an additional amount of the spiro-oxindole compound of the invention, as a racemate, a single enantiomer, or a non-racemic mixture of enantiomers, or a pharmaceutically acceptable salt thereof, was added to determine the maximum solubility.
The rationale for preparing each combination is given as well: […]

[2] = system: sodium channel; test: guanidine influx assay (WO 06/110917, BIOLOGICAL EXAMPLE 1); assay type: cell-based; settings: inhibition of ion flux through a sodium channel
Procedure: Typically, a successful therapeutic effective amount of an pharmaceutical composition of the invention for oral administration to a mammal, in need thereof, will meet some or all of the following criteria. Animal model efficacy of a spiro-oxindole compound of the invention, as a racemate, a single enantiomer, or a non-racemic mixture of enantiomers, or a pharmaceutically acceptable salt thereof, should be less than about 0.1 μg/Kg to about 100 mg/Kg body weight and the target human dose of a spiro-oxindole compound of the invention, as a racemate, a single enantiomer, or a non-racemic mixture of enantiomers, or a pharmaceutically acceptable salt thereof, should be between 0.1 μg/Kg to about 100 mg/Kg body weight, although doses outside of this range may be acceptable (“mg/Kg” means milligrams of compound per kilogram of body mass of the subject to whom it is being administered). The therapeutic index (or ratio of toxic dose to therapeutic dose) of a spiro-oxindole compound of the invention, as a racemate, a single enantiomer, or a non-racemic mixture of enantiomers, or a pharmaceutically acceptable salt thereof, should be greater than 100. […]

[3] = in vivo pharmacokinetic profile after oral administration to dogs; design: species or system male beagle dogs; settings: fasted dogs
Procedure: The in vivo pharmacokinetic profiles of the pharmaceutical compositions of the invention were determined as follows. Pharmaceutical compositions of the invention were orally administered to dogs in a controlled experiment to determine pharmacokinetic profile of a spiro-oxindole compound of the invention in a pharmaceutical composition of the invention.
Non-naïve male beagle dogs (Marshall Farms USA, Inc.) ranging in body weights from 6-10 Kg were used for the study. Each dog was fasted overnight before dosing. The fasted dogs (n=3/group) were given a single dose of 100 mg capsule (as setout in Table 4 above) or 400 mg (4×100 mg capsule) by oral administration (PO). Food was returned 4-hours post-dose. Blood samples were collected via jugular venipuncture at various timepoints ([…], 1, 2, 4, 6, 8, 24 and 48 hrs) after administration and plasma concentration was determined by liquid chromatography mass spectroscopy (LC-MS/MS). Concentrations of the active ingredient in the plasma samples at each timepoint were determined using standard methods known to one skilled in the art. The active ingredient concentrations were plotted against time (time in hours versus concentration in ng/mL) and the area under the curve extrapolated to infinity (AUCinf), the Cmax (peak plasma concentration of the active ingredient) and Tmax (time after administration of the pharmaceutical composition when peak plasma concentration level occurs) were calculated.

[4] = molecular target: Nav1.7 voltage-gated sodium channel (Homo sapiens, UniProt Q15858); test: inhibition of Nav1.7
[5] = system: pain following extraction of impacted third molar teeth; test: clinical trial for treatment of dental pain; assay type: in vivo, human; settings: single 500 mg oral dose of composition comprising COMPOUND B
Procedure: The purpose of this clinical trial was to compare the safety and efficacy (onset, duration of relief, and overall efficacy) of a single 500 mg dose of a pharmaceutical composition of the invention comprising COMPOUND B versus a placebo dose for relief of pain following extraction of impacted third molar teeth. Sixty-one subjects were enrolled in the study. The mean age for the subjects was 20.4 years, and all subjects were male. The majority of subjects were Caucasians (95.1%). The severity and relief of the pain was measured using an 11-point Pain Intensity Numerical Rating Scale (graded from 0=no pain at all to 10=worst pain imaginable) (PINRS) and a 5-point Categorical Pain Relief Scale (REL). Subjects completed the PINRS after surgery, but before the administration of (S)-enantiomer of the invention. Efficacy variables were derived from the REL and PINRS scores and included total pain relief (TOTPAR), pain intensity difference (PID), and summed pain intensity difference (SPID) and evaluated at time points of 4, 6, 8, and 12 hours after administration of the pharmaceutical composition of the invention comprising COMPOUND B.

Chain of Nav1.7 voltage-gated sodium channel (Q15858 whole entry): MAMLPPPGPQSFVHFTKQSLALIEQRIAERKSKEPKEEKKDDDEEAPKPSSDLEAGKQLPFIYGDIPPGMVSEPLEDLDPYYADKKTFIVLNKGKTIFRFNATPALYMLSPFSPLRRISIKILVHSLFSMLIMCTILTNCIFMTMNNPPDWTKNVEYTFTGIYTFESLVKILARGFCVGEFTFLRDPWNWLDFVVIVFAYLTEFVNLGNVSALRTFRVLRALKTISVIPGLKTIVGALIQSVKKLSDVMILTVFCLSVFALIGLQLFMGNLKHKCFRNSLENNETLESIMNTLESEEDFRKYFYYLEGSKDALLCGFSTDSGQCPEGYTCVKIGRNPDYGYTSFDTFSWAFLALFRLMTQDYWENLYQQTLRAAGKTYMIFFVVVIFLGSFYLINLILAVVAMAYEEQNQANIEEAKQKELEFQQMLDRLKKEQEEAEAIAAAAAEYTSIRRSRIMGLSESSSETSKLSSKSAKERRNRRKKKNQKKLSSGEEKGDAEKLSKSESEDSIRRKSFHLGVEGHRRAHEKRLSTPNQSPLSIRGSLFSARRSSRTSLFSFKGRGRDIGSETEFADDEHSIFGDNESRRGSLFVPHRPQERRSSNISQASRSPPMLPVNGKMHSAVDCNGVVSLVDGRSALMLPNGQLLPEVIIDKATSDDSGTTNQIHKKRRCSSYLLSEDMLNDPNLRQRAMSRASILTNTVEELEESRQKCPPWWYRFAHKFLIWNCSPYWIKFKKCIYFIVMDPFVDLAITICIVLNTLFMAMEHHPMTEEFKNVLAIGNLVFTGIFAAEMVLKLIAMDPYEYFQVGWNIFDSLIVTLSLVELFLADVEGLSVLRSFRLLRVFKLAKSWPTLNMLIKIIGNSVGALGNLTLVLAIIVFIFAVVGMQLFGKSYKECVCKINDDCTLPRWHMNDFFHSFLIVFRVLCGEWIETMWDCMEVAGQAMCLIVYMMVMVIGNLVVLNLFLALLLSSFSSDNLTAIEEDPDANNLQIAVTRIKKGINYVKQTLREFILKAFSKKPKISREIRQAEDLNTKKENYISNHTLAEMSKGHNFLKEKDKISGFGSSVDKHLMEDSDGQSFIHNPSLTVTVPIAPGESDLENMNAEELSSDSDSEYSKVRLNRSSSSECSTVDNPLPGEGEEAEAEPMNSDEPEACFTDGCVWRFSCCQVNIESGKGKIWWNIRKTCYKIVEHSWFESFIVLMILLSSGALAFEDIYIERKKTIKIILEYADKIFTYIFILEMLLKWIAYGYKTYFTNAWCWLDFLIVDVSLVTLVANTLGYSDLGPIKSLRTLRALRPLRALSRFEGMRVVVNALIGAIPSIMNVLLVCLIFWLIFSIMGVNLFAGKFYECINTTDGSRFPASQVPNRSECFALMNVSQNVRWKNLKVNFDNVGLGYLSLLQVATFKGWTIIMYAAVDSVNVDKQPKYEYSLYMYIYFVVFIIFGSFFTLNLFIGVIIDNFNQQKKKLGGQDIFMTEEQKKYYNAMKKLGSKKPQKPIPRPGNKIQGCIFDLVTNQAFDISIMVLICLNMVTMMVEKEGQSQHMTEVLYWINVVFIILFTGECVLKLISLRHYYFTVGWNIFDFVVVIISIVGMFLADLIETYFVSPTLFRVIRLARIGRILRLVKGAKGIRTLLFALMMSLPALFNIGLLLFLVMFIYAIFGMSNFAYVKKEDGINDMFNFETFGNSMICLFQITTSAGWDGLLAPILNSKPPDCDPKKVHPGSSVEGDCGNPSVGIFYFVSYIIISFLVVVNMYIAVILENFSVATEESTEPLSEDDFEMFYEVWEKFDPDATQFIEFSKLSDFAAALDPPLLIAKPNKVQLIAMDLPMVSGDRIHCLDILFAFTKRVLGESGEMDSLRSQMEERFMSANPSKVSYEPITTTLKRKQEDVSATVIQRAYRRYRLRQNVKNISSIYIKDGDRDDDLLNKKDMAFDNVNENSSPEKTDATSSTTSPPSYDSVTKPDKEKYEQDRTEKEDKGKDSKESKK

## O=C1N(Cc2ccc(C(F)(F)F)o2)c2ccccc2C12COc1cc3c(cc12)OCO3 (racemic) [COMPOUND A, 1′-{[5-(trifluoromethyl)-2-furyl]methyl}spiro[furo[2,3-f][1,3]benzodioxole-7,3′-indol]-2′(1′H)-one]
[1]; excipient Labrafac
  solubility in Labrafac: readily soluble in Labrafac ®. The
[1]; excipient Labrasol
  solubility in Labrasol: best excipient; also recorded: soluble in Labrasol ®, the excipient
[1]; excipient PEG 400
  solubility in PEG 400: readily soluble in PEG 400. PEG
[1]; upon mixing and heating to 70-80° C.
  solution in the excipient combinations of Table 2: suitable for producing a solution
[2]
  IC50: < 1000 nM

## O=C1N(Cc2ccc(C(F)(F)F)o2)c2ccccc2[C@]12COc1cc3c(cc12)OCO3 [COMPOUND B, (S)-1′-{[5-(trifluoromethyl)-2-furyl]methyl}spiro[furo[2,3-f][1,3]benzodioxole-7,3′-indol]-2′(1′-H)-one]
[1]; excipient Imwitor 742, compared with other excipients
  solubility in caprylic/capric glycerides such as Imwitor 742: less than other excipients
[3]; single PO dose 100 mg or 400 mg
  absorption following PO administration: readily absorbed
[3]; male, beagle, dog, plasma, single PO dose 100 mg capsule (Table 4) or 400 mg (4×100 mg capsule)
  Tmax: 1 to 3 h
[3]; male, beagle, dog, single PO dose 100 mg capsule (Table 4) or 400 mg (4×100 mg capsule), plasma
  Cmax: 1300 to 1600 ng/mL
[4]
  inhibition of Nav1.7: has been shown to inhibit
[5]
  onset of action: slow onset of action
  pain relief compared to placebo: higher
  statistical significance from the placebo: not achieved
[5]; 4, 6, 8 and 12 hours
  primary and all secondary endpoints (TOTPAR, PID, SPID) versus placebo: consistent analgesic trend
